Laboratory results: US10758534B2 (Vertex Pharmaceuticals Incorporated, priority 2014, dated 2020)

molecular target: T1, F508del (Homo sapiens, UniProt P13569, DEL508-508); experiment: Protocol 2: FRET membrane potential optical assay (VIPR), identification of correction compounds; format: cell-based; settings: Table 3; compounds of Table 1 as modulators of CFTR activity; protocol not stated
T1 construct: expressed in transfected cells
Summary of the method: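 NIH3T3 mouse fibroblasts stably expressing F508del were treated with test compound for 16 hrs at 37° C. in serum-free medium; 27° C. incubation served as positive control. F508del was activated with 10 μM forskolin plus 20 μM genistein in Cl^−-free medium, and Cl^− efflux-driven depolarization was read by DiSBAC2(3)/CC2-DMPE FRET.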

T1 sequence (P13569 with tags, fused parts or gaps DEL508-508): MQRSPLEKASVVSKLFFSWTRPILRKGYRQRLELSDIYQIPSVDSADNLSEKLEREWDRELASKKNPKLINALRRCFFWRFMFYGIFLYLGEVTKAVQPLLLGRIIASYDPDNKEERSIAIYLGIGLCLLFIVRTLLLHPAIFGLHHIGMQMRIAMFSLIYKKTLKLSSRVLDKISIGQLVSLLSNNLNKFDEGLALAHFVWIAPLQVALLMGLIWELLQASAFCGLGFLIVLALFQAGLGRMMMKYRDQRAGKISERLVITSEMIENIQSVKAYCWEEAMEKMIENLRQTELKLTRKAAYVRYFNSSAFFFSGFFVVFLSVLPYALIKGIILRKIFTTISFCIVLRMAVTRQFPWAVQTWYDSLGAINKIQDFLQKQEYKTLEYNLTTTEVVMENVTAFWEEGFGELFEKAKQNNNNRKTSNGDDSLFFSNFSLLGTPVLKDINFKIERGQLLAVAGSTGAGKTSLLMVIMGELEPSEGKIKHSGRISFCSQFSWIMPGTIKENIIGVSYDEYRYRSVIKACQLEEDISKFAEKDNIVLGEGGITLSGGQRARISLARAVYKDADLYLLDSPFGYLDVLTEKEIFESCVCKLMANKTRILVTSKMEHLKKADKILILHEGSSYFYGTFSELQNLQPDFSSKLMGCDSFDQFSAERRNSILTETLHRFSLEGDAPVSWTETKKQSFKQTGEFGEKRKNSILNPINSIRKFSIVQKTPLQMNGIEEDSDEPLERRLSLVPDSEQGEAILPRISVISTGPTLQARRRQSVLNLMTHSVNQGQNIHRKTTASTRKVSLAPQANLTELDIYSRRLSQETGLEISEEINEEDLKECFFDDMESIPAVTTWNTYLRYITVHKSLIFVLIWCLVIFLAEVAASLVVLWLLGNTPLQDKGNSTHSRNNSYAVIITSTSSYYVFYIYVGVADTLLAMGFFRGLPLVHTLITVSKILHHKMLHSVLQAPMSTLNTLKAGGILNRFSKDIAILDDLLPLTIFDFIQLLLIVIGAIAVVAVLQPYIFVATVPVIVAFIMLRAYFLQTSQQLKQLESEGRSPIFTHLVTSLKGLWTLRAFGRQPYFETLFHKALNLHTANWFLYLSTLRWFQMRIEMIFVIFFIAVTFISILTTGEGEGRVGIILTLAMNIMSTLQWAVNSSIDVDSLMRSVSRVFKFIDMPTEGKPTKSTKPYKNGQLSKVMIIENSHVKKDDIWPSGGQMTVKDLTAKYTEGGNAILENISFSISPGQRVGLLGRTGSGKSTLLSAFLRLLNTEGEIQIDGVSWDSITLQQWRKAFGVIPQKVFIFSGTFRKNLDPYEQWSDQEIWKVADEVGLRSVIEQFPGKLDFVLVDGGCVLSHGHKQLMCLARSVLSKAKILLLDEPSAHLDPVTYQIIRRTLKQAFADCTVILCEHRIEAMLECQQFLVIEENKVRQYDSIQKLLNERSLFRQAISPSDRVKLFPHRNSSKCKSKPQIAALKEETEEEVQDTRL

| Compound | EC30 |
| --- | --- |
| Cc1ccc(-c2nc(C(C)(C)C)ccc2C(=O)NS(=O)(=O)c2ccc(N)cc2)cc1 [Compound 297, N-(4-aminophenyl)sulfonyl-6-tert-butyl-2-(p-tolyl)pyridine-3-carboxamide] | ++ (“++” means between 3 uM and 10 uM) |
| Cc1cc(C)c(Cn2c(C(=O)NS(=O)(=O)c3ccncc3)cc3c(F)cccc32)c(C)c1 [Compound 298, 4-fluoro-N-(4-pyridylsulfonyl)-1-[(2,4,6-trimethylphenyl)methyl]indole-2-carboxamide] | ++ (“++” means between 3 uM and 10 uM) |
| Cc1cc(C)c(CN2Cc3c(C(C)C)cccc3C2C(=O)NS(=O)(=O)c2cccc(N)c2)c(C)c1 (centres unmarked) [Compound 299, N-(3-aminophenyl)sulfonyl-4-isopropyl-2-[(2,4,6-trimethylphenyl)methyl]isoindoline-1-carboxamide] | +++ (“+++” means <3 uM) |
| Cc1cccc(C)c1Cn1nc(-c2cccc(CN3CCOCC3)c2)cc1C(=O)NS(=O)(=O)c1ccccc1 [Compound 302, N-(benzenesulfonyl)-2-[(2,6-dimethylphenyl)methyl]-5-[3-(morpholinomethyl)phenyl]pyrazole-3-carboxamide] | ++ (“++” means between 3 uM and 10 uM) |
| CC(C)(C)c1cc(C(=O)NS(=O)(=O)c2cccc(N)c2)n(Cc2c(Cl)cc(Cl)cc2Cl)n1 [Compound 303, N-(3-aminophenyl)sulfonyl-5-tert-butyl-2-[(2,4,6-trichlorophenyl)methyl]pyrazole-3-carboxamide] | +++ (“+++” means <3 uM) |
| Cc1ccc(C(F)(F)F)c(Cn2nc(C(C)(C)C)cc2C(=O)NS(=O)(=O)c2ccccc2)c1 [Compound 304, N-(benzenesulfonyl)-5-tert-butyl-2-[[5-methyl-2-(trifluoromethyl)phenyl]methyl]pyrazole-3-carboxamide] | +++ (“+++” means <3 uM) |
| Cc1cc(C)c(Cn2c(C(=O)NS(=O)(=O)c3cccc(N)c3)cc3c(C#N)cccc32)c(C)c1 [Compound 306, N-(3-aminophenyl)sulfonyl-4-cyano-1-[(2,4,6-trimethylphenyl)methyl]indole-2-carboxamide] | +++ (“+++” means <3 uM) |
| CC(C)COc1cc(F)cc(-c2ccc(C(=O)NS(=O)(=O)c3ccc[nH]c3=O)c(N3[C@H](C)CC[C@@H]3C)n2)c1 [Compound 307, 2-(2,5-dimethylpyrrolidin-1-yl)-6-(3-fluoro-5-isobutoxy-phenyl)-N-[(2-oxo-1H-pyridin-3-yl)sulfonyl]pyridine-3-carboxamide] | +++ (“+++” means <3 uM) |
| Cc1cc(C)c(CN2CCc3ccccc3C2C(=O)NS(=O)(=O)c2cccc(N)c2)c(C)c1 (centres unmarked) [Compound 309, N-(3-aminophenyl)sulfonyl-2-[(2,4,6-trimethylphenyl)methyl]-3,4-dihydro-1H-isoquinoline-1-carboxamide] | +++ (“+++” means <3 uM) |
| Cc1cc(C)c(CN2Cc3ccccc3[C@@H]2C(=O)NS(=O)(=O)c2cccc(N)c2)c(C)c1 [Compound 310, (1R)—N-(3-aminophenyl)sulfonyl-2-[(2,4,6-trimethylphenyl)methyl]isoindoline-1-carboxamide] | +++ (“+++” means <3 uM) |
| Cc1cccc(C)c1Cn1nc(-c2cccc(C(F)F)c2)cc1C(=O)NS(=O)(=O)c1ccccc1 [Compound 315, N-(benzenesulfonyl)-5-[3-(difluoromethyl)phenyl]-2-[(2,6-dimethylphenyl)methyl]pyrazole-3-carboxamide] | +++ (“+++” means <3 uM) |
| Cc1cccc(C)c1Cn1nc(-c2ccc(C(F)(F)F)cc2)cc1C(=O)NS(=O)(=O)c1ccccc1 [Compound 316, N-(benzenesulfonyl)-2-[(2,6-dimethylphenyl)methyl]-5-[4-(trifluoromethyl)phenyl]pyrazole-3-carboxamide] | +++ (“+++” means <3 uM) |
| Cc1cc(C)c(Oc2nc(-c3cc(F)cc(OCC(C)C)c3)ccc2C(=O)NS(=O)(=O)c2cc[nH]n2)c(C)c1 [Compound 318, 6-(3-fluoro-5-isobutoxy-phenyl)-N-(1H-pyrazol-3-ylsulfonyl)-2-(2,4,6-trimethylphenoxy)pyridine-3-carboxamide] | +++ (“+++” means <3 uM) |
| Cc1cc(C)c(CN2Cc3ccccc3C2C(=O)NS(=O)(=O)c2cccc(=O)[nH]2)c(C)c1 (centres unmarked) [Compound 319, N-[(6-oxo-1H-pyridin-2-yl)sulfonyl]-2-[(2,4,6-trimethylphenyl)methyl]isoindoline-1-carboxamide] | ++ (“++” means between 3 uM and 10 uM) |
| Cc1cc(C)c(Oc2nc(-c3ccc(OCC(C)C)cc3)ccc2C(=O)NS(=O)(=O)c2cccc(N)n2)c(C)c1 [Compound 320, N-[(6-amino-2-pyridyl)sulfonyl]-6-(4-isobutoxyphenyl)-2-(2,4,6-trimethylphenoxy)pyridine-3-carboxamide] | +++ (“+++” means <3 uM) |
| CC1CCCN(c2nc(-c3ccc(OC(C)C)nc3)ccc2C(=O)NS(=O)(=O)c2cccc(N)n2)C1 (centres unmarked) [Compound 321, N-[(6-amino-2-pyridyl)sulfonyl]-6-(6-isopropoxy-3-pyridyl)-2-(3-methyl-1-piperidyl)pyridine-3-carboxamide] | +++ (“+++” means <3 uM) |
| Cc1cccc(C)c1Cn1nc(CCC(C)(C)C)cc1C(=O)NS(=O)(=O)c1cccc(N)c1 [Compound 323, N-(3-aminophenyl)sulfonyl-5-(3,3-dimethylbutyl)-2-[(2,6-dimethylphenyl)methyl]pyrazole-3-carboxamide] | +++ (“+++” means <3 uM) |

The remaining lines, values ahead:

| EC30 | Compound |
| --- | --- |
| +++ (“+++” means <3 uM) | Cc1ccccc1Oc1nc(C(C)(C)C)ccc1C(=O)NS(=O)(=O)c1cccc(N)c1 [Compound 296, N-(3-aminophenyl)sulfonyl-6-tert-butyl-2-(2-methylphenoxy)pyridine-3-carboxamide] |
| +++ (“+++” means <3 uM) | Cc1ccc(-c2ccc(C(=O)NS(=O)(=O)c3cc[nH]n3)c(Oc3c(C)cc(C)cc3C)n2)cc1 [Compound 300, 6-(p-tolyl)-N-(1H-pyrazol-3-ylsulfonyl)-2-(2,4,6-trimethylphenoxy)pyridine-3-carboxamide] |
| ++ (“++” means between 3 uM and 10 uM) | Cc1ccc(-c2nc(C(C)(C)C)ccc2C(=O)NS(=O)(=O)c2cccc(N)c2)cc1 [Compound 301, N-(3-aminophenyl)sulfonyl-6-tert-butyl-2-(p-tolyl)pyridine-3-carboxamide] |
| +++ (“+++” means <3 uM) | Cc1cc(C)c(Oc2nc(C(C)(C)C)ccc2C(=O)NS(=O)(=O)c2cccc(=O)[nH]2)c(C)c1 [Compound 305, 6-tert-butyl-N-[(6-oxo-1H-pyridin-2-yl)sulfonyl]-2-(2,4,6-trimethylphenoxy)pyridine-3-carboxamide] |
| +++ (“+++” means <3 uM) | CC(C)(C)c1ccc(C(=O)NS(=O)(=O)c2cccc(N)c2)c(-c2ccc3c(c2)CCC3)n1 [Compound 308, N-(3-aminophenyl)sulfonyl-6-tert-butyl-2-indan-5-yl-pyridine-3-carboxamide] |
| +++ (“+++” means <3 uM) | Cc1cc(C)c(Oc2nc(C(C)(C)C)ccc2C(=O)NS(=O)(=O)c2cccc(N(C)C)c2)c(C)c1 [Compound 311, 6-tert-butyl-N-[3-(dimethylamino)phenyl]sulfonyl-2-(2,4,6-trimethylphenoxy)pyridine-3-carboxamide] |
| +++ (“+++” means <3 uM) | Cc1ccc(S(=O)(=O)NC(=O)c2cc(C(C)(C)C)nn2Cc2c(C)cccc2C)cc1N [Compound 312, N-(3-amino-4-methyl-phenyl)sulfonyl-5-tert-butyl-2-[(2,6-dimethylphenyl)methyl]pyrazole-3-carboxamide] |
| +++ (“+++” means <3 uM) | Cc1cc(C)c(Cc2ccc(C(C)(C)C)nc2C(=O)NS(=O)(=O)c2cccc(N)c2)c(C)c1 [Compound 313, N-(3-aminophenyl)sulfonyl-6-tert-butyl-3-[(2,4,6-trimethylphenyl)methyl]pyridine-2-carboxamide] |
| +++ (“+++” means <3 uM) | CC(C)c1ccc(-c2nc(C(C)(C)C)ccc2C(=O)NS(=O)(=O)c2cccc(N)c2)cc1 [Compound 314, N-(3-aminophenyl)sulfonyl-6-tert-butyl-2-(4-isopropylphenyl)pyridine-3-carboxamide] |
| +++ (“+++” means <3 uM) | Cc1cc(C)c(C)c(Cn2nc(C(C)(C)C)cc2C(=O)NS(=O)(=O)c2cccc(N)c2)c1C [Compound 317, N-(3-aminophenyl)sulfonyl-5-tert-butyl-2-[(2,3,5,6-tetramethylphenyl)methyl]pyrazole-3-carboxamide] |
| +++ (“+++” means <3 uM) | Cc1cc(C)c(Oc2nc(C(C)(C)C)ccc2C(=O)NS(=O)(=O)c2ccccc2N)c(C)c1 [Compound 322, N-(2-aminophenyl)sulfonyl-6-tert-butyl-2-(2,4,6-trimethylphenoxy)pyridine-3-carboxamide] |
| ++ (“++” means between 3 uM and 10 uM) | Cc1cc(C)c(Cc2nn(C(C)(C)C)cc2C(=O)NS(=O)(=O)c2cccc(N)c2)c(C)c1 [Compound 324, N-(3-aminophenyl) sulfonyl-1-tert-butyl-3-[(2,4,6-trimethylphenyl)methyl]pyrazole-4-carboxamide] |
| +++ (“+++” means <3 uM) | Cc1cc(C)c(Oc2nn(C(C)(C)C)cc2C(=O)NS(=O)(=O)c2cccc(N)c2)c(C)c1 [Compound 325, N-(3-aminophenyl)sulfonyl-1-tert-butyl-3-(2,4,6-trimethylphenoxy)pyrazole-4-carboxamide] |
| +++ (“+++” means <3 uM) | Cn1ccc2cccc(Oc3nc(C(C)(C)C)ccc3C(=O)NS(=O)(=O)c3ccccc3)c21 [Compound 326, N-(benzenesulfonyl)-6-tert-butyl-2-(1-methylindol-7-yl)oxy-pyridine-3-carboxamide] |
| +++ (“+++” means <3 uM) | COc1cccc(S(=O)(=O)NC(=O)c2ccc(C(C)(C)C)nc2-c2ccc(C)cc2)c1 [Compound 327, 6-tert-butyl-N-(3-methoxyphenyl)sulfonyl-2-(p-tolyl)pyridine-3-carboxamide] |
